Test results: patent US20240307415A1, “STEROID COMPOUND, AND PHARMACEUTICAL COMPOSITION THEREOF AND USE THEREOF” (JIANGSU SIMCERE PHARMACEUTICAL CO., LTD., priority 2021, published 2024)

Experiments:
[1] = Plasma protein binding rate, human plasma (equilibrium dialysis); format: in vitro ADME; settings: pH 7.4, equilibrium dialysis 6 h, 37° C.
Procedure: The protein binding rates of the compound of the present invention in plasma of 5 species (humans, monkeys, dogs, rats, and mice) were determined using the following method.
• 1. Human plasma (BioIVT), monkey plasma (ADME-plasma-pooled monkey-05212020), beagle dog plasma (BioIVT), SD rat plasma (BioIVT), and CD-1 mouse plasma (BioIVT) • 2. Na2HPO4 (Sigma S5136-500G) • 3. NaH2PO4 (Sigma S3139-500G) • 4. NaCl (Sigma S5886-IKG) • 5. 96-well equilibrium dialysis plate (HTDialysis LLC, Gales Ferry, CT, HTD96B) and equilibrium dialysis membrane (MWCO 12-14K, 1101) • 6. Positive control compound warfarin • 7. ABI QTrap 5500 liquid chromatography-mass spectrometry system
• 1. […] Preparation of a dialysis membrane: the dialysis membrane was soaked in ultrapure water for 60 min to separate the membrane into two pieces, then soaked with 20% ethanol for 20 min, and finally soaked with dialysis buffer for 20 min. • 3. Preparation of plasma: the frozen plasma was quickly thawed at room temperature and then centrifuged at 3,220 g at 4° C. for 10 min to remove clots, and the supernatant was collected to a new centrifuge tube. The pH of the plasma was measured and recorded. The plasma with pH 7-8 was used. • 4. […]
The peak areas of the compound on the buffer side and the plasma side were measured. The plasma protein binding rate of the compound was calculated by the following formula: […]

[2] = Membrane permeability and transport properties (Caco-2); format: in vitro ADME; settings: human, pH 7.4, Caco-2, 10 μM
Source text: • 1. Caco-2 cells (ATCC) • 2. HEPES (Solarbio 804D049), penicillin/streptomycin (Solarbio 20200109), and PBS (Solarbio 20200620) • 3. Fetal Bovine Serum (FBS) (Sigma WXBD0055V), lucifer yellow (Sigma MKCJ3738), and NaHCO3 (Sigma SLBZ4647) • 4. Hank's balanced salt solution (HBSS) (Gibco 2085528), non-essential amino acid (NEAA) (Gibco 2211548), and Trypsin/EDTA (Gibco 2120732) • 5. High glucose DMEM (Corning 20319014) • 6. HTS Transwell-96 Well Permeable (Corning, 3391) • 7. Resistance detector (Millipore, Millicell® ERS-2) • 8. Cellometer® Vision (Nexcelom Bioscience) • 9. Infinite 200 PRO microplate reader (Tecan, Infinite M200PRO) • 10. Positive control compound metoprolol (Sinopharm 100084-201403), erythromycin (MCE 84550), and cimetidine (Sinopharm 100158-201406) • 11. ABI QTrap 5500 liquid chromatography-mass spectrometry system
• 1. […] Evaluation of integrity of monolayer cell membrane • 1) The cells fused and differentiated after 14 days of culture and were ready for a transport experiment. • 2) The resistance of the monolayer membrane was measured using a resistance detector. The resistance of each well was recorded. • 3) After measurement, the Transwell culture plate was re-incubated. • 4) The TEER value was calculated: […]

## C[C@]12C=CC(=O)C=C1CC[C@@H]1[C@@H]2[C@@H](O)C[C@@]2(C)[C@H]1C[C@H]1O[C@@H](c3ccc(Cc4cc(N)c5c(c4)CCO5)cc3)O[C@]12C(=O)CO [Compound 009, (6aR,6bS,7S,8aS,8bS,10R,11aR,12aS,12bS)-10-(4-((7-amino-2,3-dihydrobenzofuran-5-yl)methyl)phenyl)-7-hydroxy-8b-(2-hydroxyacetyl)-6a,8a-dimethyl-6a,6b,7,8,8a,8b,11a,12,12a,12b-decahydro-1H-naphtho[2′,1′:4,5]indeno[1,2-d][1,3]dioxolan-4(2H)-one]
[1]
  fraction unbound at 6 h, 1 μM: 0.002
[2]; apical to basal
  Papp A→B at 2 h, 10 μM: 0.73 ×10⁻⁶ cm/s
[2]; basal to apical
  Papp B→A at 2 h, 10 μM: 3.86 ×10⁻⁶ cm/s
